The data set in a line: physchem.
`O=C1NC2(CCc3ccccc32)C(=O)N1CCCN1CCN(c2cccc(Cl)c2)CC1` (configuration not stated): the pKa (in general, the pH at which an ionisable group is half protonated) amounted to 10.3.

The molecule `O=C1NC2(CCCc3ccccc32)C(=O)N1CCCN1CCN(c2cccc(C(F)(F)F)c2)CC1` (configuration not stated) yielded a pKa of 11.1.

In turn, `O=C1NC2(CCCc3ccccc32)C(=O)N1CCCN1CCN(c2ccccc2)CC1` (configuration not stated) returned a pKa of 10.6.

In the case of `COc1ccccc1N1CCN(CCCN2C(=O)NC3(CCCc4ccccc43)C2=O)CC1` (configuration not stated), the pKa turned out to be 10.3.

`O=C1NC2(CCc3ccccc32)C(=O)N1CCCN1CCc2ccccc2C1` (configuration not stated) gave a pKa of 10.9.

As to `COc1ccccc1N1CCN(CCCn2ccn3c4c(=O)n(C)c(=O)n(C)c4nc23)CC1`, the pKa stood at 8.19.

`Cn1c(=O)c2c(nc3n(CCCN4CCc5ccccc5C4)c(-c4ccccc4)cn23)n(C)c1=O` displayed a pKa of 10.4.

In turn, `O=C1NC2(CCCc3ccccc32)C(=O)N1CCCN1CCc2ccccc2C1` (configuration not stated) showed a pKa of 10.9.

For `COc1ccccc1N1CCN(CCCn2c(-c3ccccc3)cn3c4c(=O)n(C)c(=O)n(C)c4nc23)CC1`, the pKa was 8.44.

As for `Cn1c(=O)c2c(nc3n(CCCN4CCN(c5cccc(Cl)c5)CC4)ccn23)n(C)c1=O`, the pKa came out at 8.35. The pKa values of the last two molecules are within 0.2 log units of each other.

Molecule `COc1ccccc1N1CCN(CCCN2C(=O)NC3(CCc4ccccc43)C2=O)CC1` (configuration not stated) returned a pKa of 9.6.

As for `Cc1cn2c3c(=O)n(C)c(=O)n(C)c3nc2n1CCCN1CCc2ccccc2C1`, the pKa was determined as 8.66.

`Cn1c(=O)c2c(nc3n(CCCN4CCN(c5ccccc5)CC4)c(-c4ccccc4)cn23)n(C)c1=O`: the pKa came out at 8.79.

As to `Cc1cn2c3c(=O)n(C)c(=O)n(C)c3nc2n1CCCN1CCN(c2cccc(Cl)c2Cl)CC1`, the pKa worked out at 7.61.

The molecule `O=C1NC2(CCc3ccccc32)C(=O)N1CCCN1CCN(c2ccccc2)CC1` (configuration not stated) displayed a pKa of 10.5.

Turning to `Cc1cn2c3c(=O)n(C)c(=O)n(C)c3nc2n1CCCN1CCN(c2ccccc2)CC1`, the pKa came to 7.55.

The molecule `Cc1cn2c3c(=O)n(C)c(=O)n(C)c3nc2n1CCCN1CCN(c2cccc(Cl)c2)CC1` showed a pKa of 8.12.

As for `Cn1c(=O)c2c(nc3n(CCCN4CCN(c5ccccc5)CC4)ccn23)n(C)c1=O`, the pKa was found to be 8.09.

`O=C1NC2(CCc3ccccc32)C(=O)N1CCCN1CCN(c2cccc(C(F)(F)F)c2)CC1` (configuration not stated) gave a pKa of 9.96.

Turning to `O=C1NC2(CCCc3ccccc32)C(=O)N1CCCN1CCN(c2cccc(Cl)c2)CC1` (configuration not stated), the pKa worked out at 10.8.

Consider `COc1ccccc1N1CCN(CCCn2c(C)cn3c4c(=O)n(C)c(=O)n(C)c4nc23)CC1`, for which the pKa was 7.61.

On to `Cn1c(=O)c2c(nc3n(CCCN4CCN(c5cccc(Cl)c5)CC4)c(-c4ccccc4)cn23)n(C)c1=O`, for which the pKa turned out to be 10.6.

The values are drawn from ChEMBL document CHEMBL3046911, “Serotonin transporter activity of imidazolidine-2,4-dione and imidazo[2,1-f]purine-2,4-dione derivatives in aspect of their acid-base properties” (Med Chem Res, 2012).
